Tests used:
[1] = Serum levels of magnesium and picolinic acid, double-blind clinical study; format: in vivo; details: 500 mg magnesium picolinate vs control 916 mg picolinic acid and 90 mg magnesium; at 1, 4, 6 and 8 hours
Method: In a double-blind clinical study, 30 subjects are divided into two groups (n=15). The control group receives a supplement containing 916 mg picolinic acid and 90 mg of magnesium. The trial group receives a supplement containing 500 mg of magnesium picolinate (46 mg of magnesium and 454 mg of picolinate), or one-half the total dose of picolinate and magnesium of the control group. Serum levels of picolinic acid (ng/mL) and serum levels of magnesium (ng/mL) are measured at one hour, four hours, six hours, and eight hours. The mean serum magnesium levels for the trial group are between 80-120% of the control group at each time point. The mean serum picolinic acid levels for the trial group are between 80-120% of the control group at each time point.

[2] = Cerebrospinal fluid (CSF) levels of magnesium and picolinic acid, double-blind clinical study; format: in vivo; details: 500 mg magnesium picolinate vs control 916 mg picolinic acid and 90 mg magnesium; four and eight hours, spinal tap
Method: In a double-blind clinical study, 30 subjects are divided into two groups (n=15). The control group receives a supplement containing 916 mg picolinic acid and 90 mg of magnesium. The trial group receives a supplement containing 500 mg of magnesium picolinate (46 mg of magnesium and 454 mg of picolinate), or one-half the total dose of picolinate and magnesium of the control group. CSF levels of picolinic acid (ng/mL) and serum levels of magnesium (ng/mL) are measured at four hours and eight hours via spinal tap. The mean CSF magnesium levels for the trial group are between 80-120% of the control group at each time point. The mean CSF picolinic acid levels for the trial group are between 80-120% of the control group at each time point. Thus, magnesium picolinate provides 80-120% of the brain penetration of magnesium, and 80-120% of the brain penetration of picolinic acid, relative to twice the dose of magnesium and picolinic acid alone.

[3] = Stability of magnesium picolinate (hygroscopicity, storage, light); format: physicochemical
Text: Magnesium picolinate compositions of the invention were stable during storage at room temperature.

male Wistar rats [4] = experiment: Morris water maze; format: in vivo
Method: (§1) Seven male Wistar rats per treatment arm (age: 8 week, weight: 180±20 g) were housed in a controlled environment with a 12:12-h light-dark cycle at 22° C. and were provided with rat chow and water ad libitum. Following a 7-day acclimatization period, animals were randomly be divided into the following groups: • 1. Control (no treatment); • 2. Control+MgO (500 mg elemental Mg/kg diet), • 3. Control+MgPic (500 mg elemental Mg/kg diet), • 4. HFD (fed with high fat diet); • 5. HFD+MgO (500 mg elemental Mg/kg diet), • 6. HFD+MgPic (500 mg elemental Mg/kg diet).
(§2) The MgPic administered was prepared in accordance with the methods of the inventions described herein. […]
(§3) Laboratory Analyses—Following the treatment period, plasma was extracted and used for the determination of glucose, insulin, visceral fat, magnesium, and leptin concentrations, which was performed with an automatic analyzer (Samsung). Brain antioxidant enzyme catalase (CAT) and glutathione peroxidase (GSH-Px) were measured using a commercially available assay kit (Cayman Chemical, Ann Arbor, Mich., USA) according to the manufacturer's instructions. […] The swimming pathway and latency in locating the hidden platform was recorded for each trial. […] All samples were processed to produce clear digests, and the total magnesium in each sample was measured by flame AAS (Perkin Elmer) using established and fully verified methods. […]

[5] = Solubility of the isolated product; format: physicochemical
Method: Picolinic acid (3.7 g, 30 mmol) and magnesium acetate tetrahydrate (3.2 g, 15 mmol) were suspended in 25 mL of water. The slurry was stirred and heated at reflux overnight and then filtered to isolate 1.7 grams of crystalline MgPic. The remaining filtrate was cooled and evaporated to dryness, providing an additional 2.2 grams of amorphous MgPic with traces of residual acetate. The acetate was removed by washing the solid with ethanol to provide a 96% overall yield of MgPic (crystalline and amorphous). The ^1H-NMR spectrum of the product (FIG. 2) is consistent with the spectrum of a metal picolinate salt. […] The product contained acceptable trace levels of barium and other heavy metals of less than 200 ppm of each element tested. As such, embodiments of a MgPic composition may comprise less than about 200 ppm of barium and/or other heavy metals. In some embodiments, these compositions may comprise less than about 150, less than about 100, less than 50, or less than 20 ppm of barium and/or other heavy metals.
Picolinic acid and magnesium oxide (0.5 equiv.) were added to water, giving a white, stirrable slurry. The slurry was heated to 95-100° C. for 3 hours, and more water was added, tripling the initial amount of water [note: the procedure was based on the preparation of a related magnesium salt using magnesium oxide, in which the initial slurry completely dissolved at 80-90° C. […]

[6] = Magnesium and picolinic acid AUC0→∞, double-blind clinical study; format: in vivo; details: 500 mg magnesium picolinate vs control 916 mg picolinic acid and 90 mg magnesium
Method: (§4) In a double-blind clinical study, 30 subjects are divided into two groups (n=15). The control group receives a supplement containing 916 mg picolinic acid and 90 mg of magnesium. The trial group receives a supplement containing 500 mg of magnesium picolinate (46 mg of magnesium and 454 mg of picolinate), or one-half the total dose of picolinate and magnesium of the control group. Magnesium and picolinic acid AUC0→∞ (ng·h/mL) are measured in each subject. The mean magnesium and picolinic acid AUC0→∞ for the trial group are between 80-120% of the control group at each time point.

[7] = system: Brain antioxidant enzyme catalase (CAT); experiment: Brain antioxidant enzyme activity, commercial assay kit; format: in vivo, Wistar rats; details: rats, 500 mg elemental Mg/kg diet, 8 weeks; compared to magnesium oxide
Method: as §1, §2, §3

[8] = system: glutathione peroxidase (GSH-Px); experiment: as above; format: in vivo, Wistar rats; details: rats, 500 mg elemental Mg/kg diet, 8 weeks; compared to magnesium oxide
Method: as §1, §2, §3

[9] = Magnesium and picolinic acid Cmax and Tmax, double-blind clinical study; format: in vivo; details: 500 mg magnesium picolinate vs control 916 mg picolinic acid and 90 mg magnesium
Method: as §4, with “Cmax (ng/mL) and Tmax (minutes)” for “AUC0→∞ (ng·h/mL)”, “subject. […] Thus, magnesium picolinate provides 80-120% of the maximum serum concentration of magnesium and picolinic acid relative to twice the dose of magnesium alone, or relative to twice the dose of picolinic acid alone.” for “subject.”, “Tmax” for “AUC0→∞”, “50-80%” for “80-120%”, “point. Thus, magnesium picolinate delivers the maximum amount of bioavailable magnesium and picolinic acid in 50-80% less time relative to twice the dose of magnesium alone, or relative to twice the dose of picolinic acid alone.” for “point.”

male Wistar rats [10] = experiment: Laboratory analyses after 8 weeks of treatment (glucose, insulin, visceral fat, leptin); format: in vivo; details: 500 mg elemental Mg/kg diet, oral
Method: as §1
(§5) The MgPic administered was prepared in accordance with the methods of the inventions described herein. All treatments were administered daily as an oral supplement per day for 8 weeks. […] The rats were subjected to several study protocols during the treatment period.
Laboratory Analyses—Following the treatment period, plasma was extracted and used for the determination of glucose, insulin, visceral fat, magnesium, and leptin concentrations, which was performed with an automatic analyzer (Samsung). Brain antioxidant enzyme catalase (CAT) and glutathione peroxidase (GSH-Px) were measured using a commercially available assay kit (Cayman Chemical, Ann Arbor, Mich., USA) according to the manufacturer's instructions. […] Morris Water Maze—The water maze test was performed according to methods known to those of skill in the art. The water maze was conducted in a large circular black pool (160 cm in diameter) containing water (temperature at 24±2° C.) that had been colored with a nontoxic black dye to contrast the rat. A 12-cm-diameter black-colored round platform was placed 1.5 cm below the water surface. All of the rats were placed in the water maze room 1 h before the water maze trial daily. The rats were given a maximum time of 60 s to find the hidden platform, and they were allowed to remain on the platform for 30 s. […] The rats were given a daily session of four trials per day for six consecutive days. The swimming pathway and latency in locating the hidden platform was recorded for each trial. On the seventh day, the time taken to reach the quadrant and the number of crossings of the target quadrant was tested with the platform removed. […] It is noted that rats fed a high fat diet experience diminished memory function. […] Atomic Absorption Spectroscopy—Rat sera, liver, brains were removed and the cerebral cortex and hippocampus were dissected for analysis after the treatment period. The tissues were stored at −70° C. until analysis using atomic absorption spectroscopy (AAS). […] All samples were processed to produce clear digests, and the total magnesium in each sample was measured by flame AAS (Perkin Elmer) using established and fully verified methods. […]

[11] = Total magnesium in rat sera, liver and brain by atomic absorption spectroscopy; format: in vivo, Wistar rats; details: rats, 500 mg elemental Mg/kg diet, oral, 8 weeks; compared to magnesium oxide and control
Method: as §1, §5
Laboratory Analyses—Following the treatment period, plasma was extracted and used for the determination of glucose, insulin, visceral fat, magnesium, and leptin concentrations, which was performed with an automatic analyzer (Samsung). Brain antioxidant enzyme catalase (CAT) and glutathione peroxidase (GSH-Px) were measured using a commercially available assay kit (Cayman Chemical, Ann Arbor, Mich., USA) according to the manufacturer's instructions. […] Morris Water Maze—The water maze test was performed according to methods known to those of skill in the art. The water maze was conducted in a large circular black pool (160 cm in diameter) containing water (temperature at 24±2° C.) that had been colored with a nontoxic black dye to contrast the rat. A 12-cm-diameter black-colored round platform was placed 1.5 cm below the water surface. All of the rats were placed in the water maze room 1 h before the water maze trial daily. […] The swimming pathway and latency in locating the hidden platform was recorded for each trial. […] All samples were processed to produce clear digests, and the total magnesium in each sample was measured by flame AAS (Perkin Elmer) using established and fully verified methods. […]

[12] = compared to control specimens and those given magnesium oxide

O=C(O)c1ccccn1 [MgPic, magnesium picolinate]
mean serum magnesium levels, relative to control group [1]: 80-120% | mean serum picolinic acid levels, relative to control group [1]: 80-120% | mean CSF magnesium levels, relative to control group [2]: 80-120% | mean CSF picolinic acid levels, relative to control group [2]: 80-120% | stability during storage ([3]; 25° C./40% relative humidity): stable | stability during storage ([3]; 40° C./75% relative humidity): stable | stability / color change on exposure to light ([3]; listed as MgPic composition): stable on exposure to light | stability during storage ([3]; room temperature): stable | memory function: time taken to reach the quadrant with the hidden platform (FIG. 5) (male Wistar rats [4]; rats fed a high fat diet and rats fed the control diet, 500 mg elemental Mg/kg diet): improved memory function | memory function (FIG. 6) (male Wistar rats [4]; rats fed a high fat diet, compared to rats administered magnesium oxide): improvements | solubility in water ([5]; product of Example 2, clear and colorless solution): readily soluble in water | solubility in ethanol/water ([5]; product of Example 13): soluble in ethanol/water | mean magnesium AUC0→∞, relative to control group [6]: 80-120% | mean picolinic acid AUC0→∞, relative to control group [6]: 80-120% | brain antioxidant enzyme (CAT) activity (FIG. 7A) [7]: superior improvements of increasing brain antioxidant enzyme (CAT) activity | brain antioxidant enzyme (GSH-Px) activity (FIG. 7B) [8]: superior improvements of increasing brain antioxidant enzyme (GSH-Px) activity | mean magnesium Cmax, relative to control group [9]: 80-120% | mean magnesium Tmax, relative to control group [9]: 50-80% | mean picolinic acid Cmax, relative to control group [9]: 80-120% | mean picolinic acid Tmax, relative to control group [9]: 50-80% | glucose (FIG. 4D-4E) (male Wistar rats [10]; [12]): reduced amounts | insulin (FIG. 4D-4E) (male Wistar rats [10]; [12]): reduced amounts | leptin secretion (FIG. 4G) (male Wistar rats [10]; compared to magnesium oxide): unexpectedly superior reduction of leptin secretion | visceral fat (FIG. 4F) (male Wistar rats [10]; compared to magnesium oxide): unexpectedly improved reduction of visceral fat | magnesium levels in brain (FIG. 4A-4C) [11]: substantially improved magnesium levels | magnesium levels in liver (FIG. 4A-4C) [11]: substantially improved magnesium levels | magnesium levels in serum (FIG. 4A-4C) [11]: substantially improved magnesium levels

O=C(O)c1ccccn1 [amorphous solid, magnesium picolinate]
signs of degradation ([3]; after 30 days at 75% relative humidity and 40° C.): no signs of degradation | signs of degradation ([3]; after 60 days at 40% relative humidity and 25° C.): no signs of degradation | hygroscopicity ([3]; as measured by weight): not hygroscopic | stability / color change on exposure to light [3]: did not change color

Source: patent US12016849B2, “Magnesium picolinate compositions and methods of use” (Bonafide Health, LLC, priority 2016, dated 2024)
